Where a name gives a salt, the structure may show the parent alone. Read-outs that look alike come from different tables or passages of the source.
Legend:
[1] = tested on: TNF-α induced IL-6; experiment: TNF-α-induced IL-6 production determined by IL-6 ELISA; format: cell-based; settings: for activity at 10 µM: Homo sapiens, 24 h
Procedure, shortened: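 Human aortic endothelial cells grown to ≥90% confluence, then treated with compounds and stimuli in serum-free medium with 0.2% albumin. Secreted IL-6 in collected media measured by sandwich ELISA (2 ug/ml capture, 200 ng/ml biotinylated detection antibody, streptavidin-HRP), read at 450 nm.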

[2] = tested on: cells; experiment: Cytotoxicity/Lactate Dehydrogenase assay; format: cell-based; settings: toxic or cause cell death; concentrations (uM) given
Method: An appropriate number of cells are plated in four 96-well plates, one plate for “day 0” and three plates for days 1-3. Cells are treated with at least one compound of the present invention in varying concentrations with and without the apoptosis inducer cisplatin (2 μM) (“+cis” or “-cis”). Unteated cells are also assayed with and without cisplatin. After transfection, the plates are incubated at 37° C. overnight.
An appropriate number of cells are plated in four 96-well plates, one plate for “day 0” and three plates for days 1-3. Cells are treated with at least one compound of the present invention in varying concentrations. The negative control cells have normal media conditions, a duplicate set of wells is treated with the composition in which the compound is provided, but there is no added compound and the positive control cells are treated with the apoptosis inducer cisplatin (2 μM). All of the cells are transfected with a vector having a promoter that is responsive to apoptosis conditions. When apoptosis occurs, the promoter is turned on and the lactic dehydrogenase gene is activated and the enzyme protein is made and active. Activity is easily detected with a color change. After transfection, the plates are incubated at 37° C. overnight.
About 8 mls of warmed alpha MEM LDH lysis buffer (2% Triton X100) and about 8 mls of culture media (1/2 dilution) are combined. Two 96-well v-bottom plates are prepared, one labeled “lysis” and one labeled “supernatant.” To lyse the cells, about 200 μl Alpha MEM lysis buffer (diluted 1/2) is added to one test plate from which the supernatant has been removed and added to the plate labeled supernatant. After mixing, about 200 μl of lysed cells are transferred to the lysis plate. Both the lysis and supernatant plates are centrifuged at about 1600 rpm for about 10 min. After centrifugation, about 100 μl of both the supernatant or lysate is transferred to corresponding 96-well flat-bottomed plates.
The assay for cytotoxicity uses the Cytotoxicity Detection Kit (LDH) from Roche Diagnostics Corp. (Indianapolis, Ind.). Using the directions provided, the dye solution is mixed and added each well of the lysate and supernatant plate and incubated for up to 20-25 min at 15-25° C. in the dark.

[3] = tested on: Human aortic smooth muscle cells; experiment: Smooth muscle cell proliferation assay / anti-proliferation assay (perlecan)
Method: Human aortic smooth muscle cells (Clonetics) were used. Cells were grown in basal medium containing 5% fetal bovine serum supplemented with growth factors, basic fibroblast growth factor, epidermal growth factor and insulin. […] The cells were then serum starved for 24 h to induce quiescence. Fresh growth medium containing no compound or 10 μM compound was then added and further incubated for 24 h. Cell number was determined by using a cell proliferation assay kit (Celltiter96 AQueous from Promega).

[4] = Table 5, second part, column 1, class = % of control IL6 production, read-out: Inhibition of TNF-induced IL6, production

Row | SMILES | Toxicity [2] | other results
1 | COc1ccc(Nc2nc(NN3CCCCCC3)nc(N(C)C3CCNCC3)n2)cc1Cl |  | melting point: 81 °C
2 | COc1ccc(Nc2nc(NC3CCCCCC3)nc(N3CCSCC3)n2)cc1Cl |  | melting point: 78 to 80 °C
3 | CCN1CCCC1CNc1nc(Nc2cnc3ccccc3c2)nc(NC2CCCCCC2)n1 (centres unmarked) [Compound 3, N^2-cycloheptyl-N^4-[(1-ethyl-2-pyrrolidinyl)methyl]-N^6-(3-quinolinyl)-1,3,5-triazine-2,4,6-triamine] | toxic | activity at 10 µM [1, 4]: 0 to 25%
4 | CCN1CCCC1CNc1nc(Nc2cccc3cccnc23)nc(NC2CCCCCC2)n1 (centres unmarked) [Compound 5, N^2-cycloheptyl-N^4-[(1-ethyl-2-pyrrolidinyl)methyl]-N^6-(8-quinolinyl)-1,3,5-triazine-2,4,6-triamine] | toxic | 
5 | CCN1CCCC1CNc1nc(Nc2ccc(Cl)c(Cl)c2)nc(NC2CCCCCC2)n1 (centres unmarked) [Compound 7, N^2-cycloheptyl-N^4-(3,4-dichlorophenyl)-N^6-[(1-ethyl-2-pyrrolidinyl)methyl]-1,3,5-triazine-2,4,6-triamine] | toxic | 
6 | CCN1CCCC1CNc1nc(Nc2ccc(F)c(F)c2)nc(NC2CCCCCC2)n1 (centres unmarked) [Compound 8, N^2-cycloheptyl-N^4-(3,4-difluorophenyl)-N^6-[(1-ethyl-2-pyrrolidinyl)methyl]-1,3,5-triazine-2,4,6-triamine] | toxic | 
7 | CCN1CCCC1CNc1nc(Nc2ccc(OC(F)(F)F)cc2)nc(NC2CCCCCC2)n1 (centres unmarked) [Compound 9, N^2-cycloheptyl-N^4-[(1-ethyl-2-pyrrolidinyl)methyl]-N^6-[4-(trifluoromethoxy)phenyl]-1,3,5-triazine-2,4,6-triamine] | toxic | 
8 | CCN1CCCC1CNc1nc(Nc2ccc(Cl)cc2)nc(NC2CCCCCC2)n1 (centres unmarked) [Compound 12, N^2-(4-chlorophenyl)-N^4-cycloheptyl-N^6-[(1-ethyl-2-pyrrolidinyl)methyl]-1,3,5-triazine-2,4,6-triamine] | toxic | 
9 | CCN1CCCC1CNc1nc(Nc2ccc(Br)cc2)nc(NC2CCCCCC2)n1 (centres unmarked) [Compound 13, N^2-(4-bromophenyl)-N^4-cycloheptyl-N^6-[(1-ethyl-2-pyrrolidinyl)methyl]-1,3,5-triazine-2,4,6-triamine] | toxic | 
10 | CCOC(=O)c1ccc(Nc2nc(NCC3CCCN3CC)nc(NC3CCCCCC3)n2)cc1 (centres unmarked) [Compound 14, Ethyl 4-[(4-(cycloheptylamino)-6-{[(1-ethyl-2-pyrrolidinyl)methyl]amino}-1,3,5-triazin-2-yl)-amino]benzoate] | toxic | 
11 | CCN1CCCC1CNc1nc(Nc2cccc(F)c2)nc(NC2CCCCCC2)n1 (centres unmarked) [Compound 16, N^2-cycloheptyl-N^4-[(1-ethyl-2-pyrrolidinyl)methyl]-N^6-(3-fluorophenyl)-1,3,5-triazine-2,4,6-triamine] | toxic | 
12 | CCN1CCCC1CNc1nc(Nc2ccccc2Cl)nc(NC2CCCCCC2)n1 (centres unmarked) [Compound 21, N^2-(2-chlorophenyl)-N^4-cycloheptyl-N^6-[(1-ethyl-2-pyrrolidinyl)methyl]-1,3,5-triazine-2,4,6-triamine] | toxic | 
13 | CCN1CCCC1CNc1nc(Nc2ccccc2Br)nc(NC2CCCCCC2)n1 (centres unmarked) [Compound 22, N^2-(2-bromophenyl)-N^4-cycloheptyl-N^6-[(1-ethyl-2-pyrrolidinyl)methyl]-1,3,5-triazine-2,4,6-triamine] | toxic | 
14 | CCN1CCCC1CNc1nc(Nc2ccc(Oc3ccccc3)cc2)nc(NC2CCCCCC2)n1 (centres unmarked) [Compound 36, N^2-cycloheptyl-N^4-[(1-ethyl-2-pyrrolidinyl)methyl]-N^6-(4-phenoxyphenyl)-1,3,5-triazine-2,4,6-triamine] | toxic | 
15 | CCN1CCCC1CNc1nc(NC2CCCCCC2)nc(N(C)c2ccc(OC(F)(F)F)cc2)n1 (centres unmarked) [Compound 47, N^2-cycloheptyl-N^4-[(1-ethyl-2-pyrrolidinyl)methyl]-N^6-methyl-N^6-[4-(trifluoromethoxy)phenyl]-1,3,5-triazine-2,4,6-triamine] | toxic | 
16 | CCN1CCCC1CNc1nc(Nc2ccc(OC)c(F)c2)nc(NC2CCCCCCC2)n1 (centres unmarked) [Compound 54, N^2-cyclooctyl-N^4-[(1-ethyl-2-pyrrolidinyl)methyl]-N^6-(3-fluoro-4-methoxyphenyl)-1,3,5-triazine-2,4,6-triamine] | toxic | 
17 | CCN1CCCC1CNc1nc(Nc2ccc(OC)c(F)c2)nc(N2CCCC3CCCCC32)n1 (centres unmarked) [Compound 59, N^2-[(1-ethyl-2-pyrrolidinyl)methyl]-N^4-(3-fluoro-4-methoxyphenyl)-N^6-octahydro-1(2H)-quinolinyl-1,3,5-triazine-2,4-diamine] | toxic | 
18 | COc1ccc(Nc2nc(NCCN(C)C)nc(NC3CCCCCC3)n2)cc1F [Compound 93, N^2-cycloheptyl-N^4-[2-(dimethylamino)ethyl]-N^6-(3-fluoro-4-methoxyphenyl)-1,3,5-triazine-2,4,6-triamine] | toxic | activity at 10 µM ([1]; Table 5, first part, class = % of control IL6 production, read-out: Inhibition of TNF-induced IL6 production): 0 to 25%; activity at 10 µM [1, 4]: 0 to 25%
19 | CCCCN(CCC)c1nc(Nc2ccc(OC)c(Cl)c2)nc(N(C)C2CCN(C)CC2)n1 [Compound 111, N-Butyl-N′-(3-chloro-4-methoxy-phenyl)-N″-methyl-N″-(1-methyl-piperidin-4-yl)-N-propyl-[1,3,5]triazine-2,4,6-triamine] | Toxic by eye at 50and 10 uM noblunt/round justdeath | % IL6 production compare to TNF stimulation of IL6 (100%), @ 5 uM ([1]; HAEC, 5 uM compound, TNF stimulation = 100%): 46%; activity at 10 µM ([1]; read-out: % IL6 production compare to TNF stimulation of IL6 (100%), Compds tested @ 10 uM HAEC, IL6): > 90%; activity at 10 µM ([1]; read-out: Inhibition of TNF-induced IL6 production): 75 to 100%
20 | COc1ccc(Nc2nc(Cl)nc(OCC3CCCCC3)n2)cc1F [Compound 114, (4-Chloro-6-cyclohexylmethoxy-[1,3,5]triazin-2-yl)-(3-fluoro-4-methoxy-phenyl)-amine] |  | melting point: 98 °C
21 | COc1ccc(Nc2nc(Nc3ccc(OC)c(F)c3)nc(OCC3CCCCC3)n2)cc1F [Compound 115, 6-Cyclohexylmethoxy-N,N′-bis-(3-fluoro-4-methoxy-phenyl)-1,3,5-triazine-2,4-diamine] |  | melting point: 181 °C
22 | CCN1CCCC1CNc1nc(Nc2ccc(OC)c(F)c2)nc(OCC2CCCCC2)n1 (centres unmarked) [Compound 116, 6-Cyclohexylmethoxy-N-(1-ethyl-pyrrolidin-2-ylmethyl)-N′-(3-fluoro-4-methoxy-phenyl)-[1,3,5]triazine-2,4-diamine] |  | melting point: 59 °C
23 | COc1ccc(Nc2nc(Cl)nc(OCC3CCCCC3)n2)cc1Cl [Compound 117, (4-Chloro-6-cyclohexylmethoxy-[1,3,5]triazin-2-yl)-(3-chloro-4-methoxy-phenyl)-amine] |  | melting point: 114 °C
24 | COc1ccc(Nc2nc(OCC3CCCCC3)nc(N(C)C3CCN(C)CC3)n2)cc1Cl [Compound 119, N-(3-Chloro-4-methoxy-phenyl)-6-cyclohexylmethoxy-N′-methyl-N′-(1-methyl-piperidin-4-yl)-[1,3,5]triazine-2,4-diamine] | toxic | 
25 | CCN1CCCC1CNc1nc(Nc2ccc(OC)c(Cl)c2)nc(NC2CCCCCC2)n1 (centres unmarked) [Compound 136, N^2-(3-chloro-4-methoxy-phenyl)-N^4-cycloheptyl-N^6-(1-ethyl-pyrrolidin-2-ylmethyl)-1,3,5-triazine-2,4,6-triamine] | Nothing but celldebris at 3 uM verytoxic | 
26 | COc1ccc(Nc2nc(NC3CCCCCC3)nc(N(C)C3CCN(C)CC3)n2)cc1F [Compound 167, N^2-cycloheptyl-N^4-(3-fluoro-4-methoxy-phenyl)-N^6-methyl-N^6-(1-methyl-piperidin-4-yl)-1,3,5-triazine-2,4,6-triamine maleate salt] |  | % IL6 production compare to TNF stimulation of IL6 (100%), HAEC, IL6, @ 5 uM ([1]; HAEC, TNF stimulated, compound 5 uM (bracketed value), maleate salt): 25%; IC50 ([3]; read-out: Activity (note 1), anti-proliferation assay (perlecan), maleate salt): > 7 µM
27 | COc1ccc(Nc2nc(NC3CCCCCC3)nc(OC3CCCN(C(C)=O)C3)n2)cc1Cl (centres unmarked) [drawing 1597] |  | Inflammation Data, inhibition at 10 uM ([1]; 10 uM): complete inhibition at 10 uM; Proliferation Data (result in words) ([3]; screens at 5 & 10 uM): Not active at 5 & 10 uM
28 | COc1ccc(Nc2nc(NC3CCCCCC3)nc(NC3CCN(Cc4ccccc4)CC3)n2)cc1Cl [drawing 1615] |  | Inflammation Data, cell death at 5 uM ([1]; 5 uM): 20%; Inflammation Data, cell death at 10 uM ([1]; 10 uM): > 50%; Proliferation Data, cell morphology (rounding, blunting, morphology change) [3]: cell blunting at 1 uMand rounding at 5 uM

Source: US7332489B2, “Methods and compositions of novel triazine compounds” (Reddy US Therapeutics, Inc., priority 2003, dated 2008)
